{
  "source": "patent EP0293814A1",
  "about": "“Mono- and polyhydroxyacyl derivatives of polyoxygenated labdanes, a process for their production and their use as drugs” (HOECHST AKTIENGESELLSCHAFT, priority 1987, dated 1988)",
  "assay": "Lowering of intraocular pressure, Schiotz tonometry",
  "type": "in vivo",
  "text": "Die Labdane der vorliegenden Anmeldung eignen sich zur Behandlung des erhöhten Augeninnendrucks, weil sie, wie mit der Schiotz-Tonometrie nachgewiesen, die Eigenschaft besitzen, den Augeninnendruck herabzusetzen (s. Capriol. J., Sears, M., Lancet, 1, (1983) 958 - 96).\nDie Wirksamkeit einiger repräsentativer Verbindungen gemäß der Erfindung ist als prozentuale Senkung des Augeninnendrucks ausgedrückt und in Tab. 2 dargestellt.",
  "data": [
    {"smiles": "C=C[C@@]1(C)CC(=O)[C@]2(O)[C@@]3(C)[C@@H](O)CCC(C)(C)[C@@H]3[C@H](O)[C@H](OC(=O)COCC)[C@@]2(C)O1", "note": "[compound 1]", "values": [
      {"measurement": "Senkung des Augeninnendrucks (%)", "setting": "Konzentration 2 %", "result": 31, "unit": "%"}
    ]},
    {"smiles": "C=C[C@@]1(C)CC(=O)[C@]2(O)[C@@]3(C)[C@@H](O)CCC(C)(C)[C@@H]3[C@H](OC(=O)COCC)[C@H](O)[C@@]2(C)O1", "note": "[compound 2]", "values": [
      {"measurement": "Senkung des Augeninnendrucks (%)", "setting": "Konzentration 2 %", "result": 20, "unit": "%"}
    ]},
    {"smiles": "C=C[C@@]1(C)CC(=O)[C@]2(O)[C@@]3(C)[C@@H](OC(=O)COC=O)CCC(C)(C)[C@@H]3[C@H](O)[C@H](OC(=O)COC=O)[C@@]2(C)O1", "note": "[compound 5]", "values": [
      {"measurement": "Senkung des Augeninnendrucks (%)", "setting": "Konzentration 2 %", "result": 26, "unit": "%"}
    ]},
    {"smiles": "C=C[C@@]1(C)CC(=O)[C@]2(O)[C@@]3(C)[C@@H](O)CCC(C)(C)[C@@H]3[C@H](O)[C@H](OC(=O)[C@H](O)CO)[C@@]2(C)O1", "note": "[compound 7]", "values": [
      {"measurement": "Senkung des Augeninnendrucks (%)", "setting": "Konzentration 0,1 %", "result": 17, "unit": "%"},
      {"measurement": "Senkung des Augeninnendrucks (%)", "setting": "Konzentration 0,5 %", "result": 25, "unit": "%"},
      {"measurement": "Senkung des Augeninnendrucks (%)", "setting": "Konzentration 0,25 %", "result": 24, "unit": "%"},
      {"measurement": "Senkung des Augeninnendrucks (%)", "setting": "Konzentration 2 %", "result": 27, "unit": "%"},
      {"measurement": "Erniedrigung des Augeninnendrucks", "setting": "in words, compared with the other substances of the invention (Tab. 2)", "result": "wesentlich besser erniedrigt als die anderen Substanzen der Erfindung"}
    ]}
  ]
}
